This note sets out measurements from US10294269B2, “Dipeptidyl ketoamide compounds and their use for the treatment and/or prevention of fat accumulation” (LANDSTEINER GENMED, S.L., priority 2014, dated 2019).

The assay deals with 3T3-L1 pre-adipocyte cell line. As to the kind of experiment: Mouse 3T3-L1 pre-adipocyte cells differentiation assay (Nile Red lipid fluorescence). Format: cell-based. The note with it: % of adipogenesis inhibition; compound at 25 μM in differentiation medium (2 days) and insulin medium (2 days); 3T3-L1 cells. Here is the method: Mouse 3T3-L1 Pre-Adipocyte Cells Differentiation Assay
Cell Culture and Treatment
Mouse (Mus musculus) 3T3-L1 pre-adipocyte cell line was purchased at ATCC.
Induction of adipocyte differentiation was performed according to Choi K C et al “The role of ghrelin and growth hormone secretagogues receptor on rat adipogenesis” Endocrinol 144: 754-759, 2003 with some modifications.
Briefly, 3T3-L1 pre-adipocytes were seeded in 24 well culture plates at a density of 3×10^4 cells/well in growth medium (DMEM containing 4.5 g/L glucose, 1 mM sodium pyruvate, 2 mM L-glutamine, 100 μg/mL streptomycin/penicilline, 25 mM HEPES and 10% calf serum (heat inactivated)). The resulting solution is used as a blank in the measure of fluorescence described below.
Cells were incubated at 37° C., 95% humidity and 10% CO2. Two days after reaching confluence (ninth day) growth medium was changed to differentiation medium (DMEM containing 4.5 g/L glucose, 2 mM L-glutamine, 100 μg/mL streptomycin/penicilline, 25 mM HEPES, 10% FBS (heat inactivated), 1 mM sodium pyruvate, 0.5 mM 3-isobutyl-1-methylxanthine, 0.25 μM dexamethasone, and 5 μg/mL insulin). After 48 h, the medium was replaced by insulin medium (DMEM containing 4.5 g/L glucose, 1 mM sodium pyruvate, 2 mM L-glutamine, 100 μg/mL streptomycin/penicillin, 25 mM HEPES, 10% FBS (inactivated) and 5 μg/mL insulin) for another 48 hours, and then incubated in 10% FBS/DMEM (same as insulin medium without insulin) for 4 days up to their complete differentiation.
The compounds to be tested were added at the 25 μM concentration to the differentiation medium (2 days) and to the insulin medium (2 days).
After incubation, the intracellular stored lipids were quantified by measuring the fluorescence after staining the lipids with the fluorescent dye Nile Red (9-diethylamino-5-benzo[α]phenoxazinone).
To carry out said lipid measurement, cells were lysed in hypotonic buffer (1 mM Tris-HCl pH=7.5) containing 2 μg/ml of Nile Red (9-diethylamino-5-benzo[t]phenoxazinone) for 15 min at 37° C.
Lysed cells were homogenized and TAG content was determined by monitoring Nile Red fluorescence in a laser spectral fluorometer. Excitation 522 nm; Emission 574 nm.
For each compound to be tested the following fluorescence measures were recorded: • FC: Fluorescence of a sample of lysed cells incubated in the presence of the compound in both the differentiation medium and in the insulin medium. • FB: Fluorescence of a blank sample of sample of pre-adipocytes in growth medium. • FNC: Fluorescence of a sample of lysed cells incubated with the differentiation medium and insulin medium not comprising any additional compound.
The inhibition of adipogenesis in the presence of the tested compounds is calculated from the following equation: % of adipogenesis inhibition=100−[100×((FC−FB)/(FNC−FB))]
% of adipogenesis inhibition (reflecting the activity against 3T3-L1 cell differentiation into adipocytes) was determined for each compound, and the effect at the […] has been chosen as the most representative value as to be shown in the structure-activity table.

As to “N-[(1S)-1-(1-benzyl-2-tert-butylcarbamoyl-2-oxo-ethylcarbamoyl)-3-methyl-butyl]-benzamide [Example 52]”, the Adipogenesis inhibition score result is “++ (Inhibition between >15% and 30%)”.
